According to patent US4598066A, “Antimycoplasmal agent for animals and method of use for prevention and treatment of mycoplasmosis” (Fujisawa Pharmaceutical Co., Ltd., priority 1982, dated 1986):

System: Mycoplasma gallisepticum 1RF
Test: Test 5: Mycoplasma gallisepticum 1RF intranasal infection in chickens, Compound 1 and tylosin alone and combined
Format: in vivo, chicken
Details: single oral dose 100 mg/kg 1 hr after intranasal infection; 20 days after infection (group C)
Description: Mycoplasma: Mycoplasma gallisepticum 1RF supplied from the National Institute of Animal Health, Ibaraki prefecture, Japan was used.
Chickens used: Broiler males (Chunky), purchased as day-old chickens from a commercial flock free of Mycoplasma gallisepticum agglutinins, were maintained under isolation in an electrically heated battery brooder. When birds reached 7 to 8 days of age, they were used for test.
Infection of mycoplasma: Mycoplasma gallisepticum 1RF was cultured in PPLO liquid medium (Difco) for 3 to 4 days at 37° C. until the colour of broth changed from red to yellowish organge. An aliquot of the culture (10^7 -10^8 cfu/ml) was used for infection.
Intranasal infections were produced by dropping 0.05 ml of the culture into the nasal cavity of chickens.
Recovery of mycoplasma: Twenty to 21 days after infection, the chickens were killed and recovery of mycoplasma was examined from the trachea, air-sac, and tibia-metatarsus joints.
Recovered organisms were identified as Mycoplasma gallisepticum after examining glucose fermentation, colonies, and haemadsorption test.
Inhibition(%) of infection: Average recovery percentage of Mycoplasma gallisepticum from trachea, air-sac, and tibia-metatarsus joints was measured infected medicated, and infected non-medicated chickens.
Inhibition(%) was calculated as follows: [formula] […]

CC[C@H]1OC(=O)C[C@@H](O)[C@H](C)[C@@H](O[C@@H]2O[C@H](C)[C@@H](O[C@H]3C[C@@](C)(O)[C@@H](O)[C@H](C)O3)[C@H](N(C)C)[C@H]2O)[C@@H](CC=O)C[C@@H](C)C(=O)/C=C/C(C)=C/[C@@H]1CO[C@@H]1O[C@H](C)[C@@H](O)[C@@H](OC)[C@H]1OC [Tylosin, tylosin] was tested, and the “Inhibition (%) of infection” value was 17%.
